In the supplement of paper PMC11451515:

System: SEM cells
Assay: cell viability relative to DMSO control; higher = less cytotoxic
Settings: 48 h
How it was run: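 Viability was expressed as a per-plate percentage of DMSO wells, with cell-free wells as background. Leukemia cells (NOMO1 or SEM at 500 cells/well, P12-Ichikawa at 1000 cells/well) were adapted for at least four passages in each medium and seeded in 1536-well plates (5 μl). Library compounds in DMSO were pin-dosed over an 11-point threefold series from 47 μM to 0.79 nM, and CellTiter-Glo One luminescence was read after 48 h at 37°C.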

[1] = HPLM + 10% dialyzed FBS, 0.000781 µM
[2] = HPLM + 10% dialyzed FBS, 0.00234 µM
[3] = HPLM + 10% dialyzed FBS, 0.00702 µM
[4] = HPLM + 10% dialyzed FBS, 0.0211 µM
[5] = HPLM + 10% dialyzed FBS, 0.0632 µM
[6] = HPLM + 10% dialyzed FBS, 0.19 µM
[7] = HPLM + 10% dialyzed FBS, 0.569 µM
[8] = HPLM + 10% dialyzed FBS, 1.71 µM
[9] = HPLM + 10% dialyzed FBS, 5.12 µM
[10] = HPLM + 10% dialyzed FBS, 15.4 µM
[11] = HPLM + 10% dialyzed FBS, 46.1 µM
[12] = RPMI 5 mM glucose + 10% FBS, 0.000781 µM
[13] = RPMI 5 mM glucose + 10% FBS, 0.00234 µM
[14] = RPMI 5 mM glucose + 10% FBS, 0.00702 µM
[15] = RPMI 5 mM glucose + 10% FBS, 0.0211 µM
[16] = RPMI 5 mM glucose + 10% FBS, 0.0632 µM
[17] = RPMI 5 mM glucose + 10% FBS, 0.19 µM
[18] = RPMI 5 mM glucose + 10% FBS, 0.569 µM
[19] = RPMI 5 mM glucose + 10% FBS, 1.71 µM
[20] = RPMI 5 mM glucose + 10% FBS, 5.12 µM
[21] = RPMI 5 mM glucose + 10% FBS, 15.4 µM
[22] = RPMI 5 mM glucose + 10% FBS, 46.1 µM
[23] = RPMI 5 mM glucose + 10% dialyzed FBS, 0.000781 µM
[24] = RPMI 5 mM glucose + 10% dialyzed FBS, 0.00234 µM
[25] = RPMI 5 mM glucose + 10% dialyzed FBS, 0.00702 µM
[26] = RPMI 5 mM glucose + 10% dialyzed FBS, 0.0211 µM
[27] = RPMI 5 mM glucose + 10% dialyzed FBS, 0.0632 µM
[28] = RPMI 5 mM glucose + 10% dialyzed FBS, 0.19 µM
[29] = RPMI 5 mM glucose + 10% dialyzed FBS, 0.569 µM
[30] = RPMI 5 mM glucose + 10% dialyzed FBS, 1.71 µM
[31] = RPMI 5 mM glucose + 10% dialyzed FBS, 5.12 µM
[32] = RPMI 5 mM glucose + 10% dialyzed FBS, 15.4 µM
[33] = RPMI 5 mM glucose + 10% dialyzed FBS, 46.1 µM

Structure (SMILES) | cell viability [1] [%] | cell viability [2] [%] | cell viability [3] [%] | cell viability [4] [%] | cell viability [5] [%] | cell viability [6] [%] | cell viability [7] [%] | cell viability [8] [%] | cell viability [9] [%] | cell viability [10] [%] | cell viability [11] [%] | cell viability [12] [%] | cell viability [13] [%] | cell viability [14] [%] | cell viability [15] [%] | cell viability [16] [%] | cell viability [17] [%] | cell viability [18] [%] | cell viability [19] [%] | cell viability [20] [%] | cell viability [21] [%] | cell viability [22] [%] | cell viability [23] [%] | cell viability [24] [%] | cell viability [25] [%] | cell viability [26] [%] | cell viability [27] [%] | cell viability [28] [%] | cell viability [29] [%] | cell viability [30] [%] | cell viability [31] [%] | cell viability [32] [%] | cell viability [33] [%]
Cc1ccc(-c2cc(C(F)(F)F)nn2-c2ccc([S+](N)(=O)[O-])cc2)cc1 | 112 | 113 | 106 | 125 | 119 | 126 | 121 | 122 | 106 | 109 | 91.3 | 84.8 | 109 | 110 | 110 | 126 | 122 | 122 | 102 | 102 | 105 | 83.9 | 120 | 121 | 126 | 127 | 120 | 123 | 120 | 111 | 117 | 140 | 87.4
CN1CCN(CCCN2c3ccccc3Sc3ccc(Cl)cc32)CC1.O=C(O)/C=C\C(=O)O.O=C(O)/C=C\C(=O)O | 105 | 112 | 110 | 113 | 108 | 112 | 104 | 114 | 112 | 117 | 82.2 | 102 | 113 | 118 | 111 | 129 | 122 | 119 | 121 | 119 | 115 | 68.6 | 101 | 99.7 | 128 | 113 | 115 | 122 | 119 | 133 | 133 | 116 | 104
CN(C)CCc1c[nH]c2ccc(C[S+](=O)([O-])N3CCCC3)cc12 | 78.9 | 97.3 | 91.4 | 104 | 97.1 | 97.5 | 94 | 109 | 97.8 | 86.8 | 83.6 | 83.9 | 93.4 | 85.7 | 93.7 | 101 | 104 | 96.8 | 101 | 87.2 | 60.5 | 67.4 | 87.5 | 96 | 91.5 | 98.4 | 107 | 96.2 | 88.5 | 96.7 | 84.4 | 77.2 | 65
Nc1nc(N)c(N=O)c(OCC2CCCCC2)n1 | 71.5 | 92.1 | 54.6 | 88.7 | 91.9 | 100 | 89.4 | 75.5 | 40.8 | 39 | 28.2 | 94.7 | 84.2 | 56.6 | 91.4 | 97.2 | 93.3 | 96.7 | 74 | 47.8 | 38.1 | 27.4 | 81.6 | 86.2 | 71.4 | 86.8 | 96 | 100 | 102 | 79 | 56.5 | 45.2 | 32
Nc1nc(NCCNc2ncc(-n3ccnc3)c(-c3ccc(Cl)cc3Cl)n2)ccc1[N+](=O)[O-] | 120 | 134 | 112 | 135 | 123 | 132 | 132 | 99.6 | 104 | 121 | 107 |  |  |  |  |  |  |  |  |  |  |  | 135 | 124 | 119 | 129 | 138 | 123 | 128 | 116 | 93.4 | 116 | 103
Cc1cccc2c1CC[C@H](CN1CCC(c3c(Cl)cccc3Cl)CC1)C[C@@H]2O | 71 | 98.2 | 113 | 111 | 128 | 114 | 116 | 122 | 101 | 96.6 | 79.9 | 112 | 138 | 120 | 127 | 130 | 111 | 142 | 133 | 108 | 72.5 | 58 | 88.5 | 109 | 118 | 126 | 120 | 95.8 | 104 | 112 | 91.9 | 70.6 | 58.3
CC(C)(C)C1=CC(=C(NC(=O)C/2=C/NC3=C(C=CC=C3)C2=O)C=C1O)C(C)(C)C | 122 | 118 | 128 | 123 | 113 | 131 | 124 | 124 | 109 | 108 | 103 | 109 | 108 | 126 | 113 | 120 | 111 | 129 | 129 | 123 | 116 | 108 | 98.7 | 101 | 103 | 99.9 | 101 | 103 | 115 | 97.8 | 110 | 110 | 94.7
C=CC(=O)Nc1ccc2ncnc(Nc3ccc(OCc4cccc(F)c4)c(Cl)c3)c2c1 | 75.8 | 82.7 | 83.9 | 84.4 | 103 | 91.2 | 89.7 | 101 | 77.5 | 21.2 | 18.1 | 102 | 105 | 115 | 117 | 95.3 | 110 | 118 | 116 | 76.1 | 14.6 | 12.5 | 85.5 | 87.5 | 88.4 | 92.4 | 102 | 92.4 | 93 | 107 | 77 | 19.9 | 11.1
CCOC(=O)[C@@H](N)CCC(=O)N[C@@H](CSCc1ccccc1)C(=O)N[C@@H](C(=O)OCC)c1ccccc1 | 84.5 | 105 | 99.8 | 103 | 104 | 111 | 109 | 116 | 119 | 97.1 | 102 |  |  |  |  |  |  |  |  |  |  |  |  |  |  |  |  |  |  |  |  |  | 
COc1ccc(C2(C#N)CCC(C(=O)O)CC2)cc1OC1CCCC1 (centres undefined) | 85.5 | 97.5 | 95.9 | 101 | 99.6 | 102 | 103 | 94.7 | 105 | 106 | 114 | 77.3 | 85.3 | 94.1 | 90.4 | 87.4 | 95.5 | 104 | 95.8 | 88.3 | 99.4 | 99.6 | 81.8 | 86.8 | 104 | 94.4 | 84.3 | 95.5 | 92.2 | 100 | 90.4 | 96.9 | 96.3
CC(C)c1c(C(=O)Nc2ccccc2)c(-c2ccccc2)c(-c2ccc(F)cc2)n1CC[C@@H](O)C[C@@H](O)CC(=O)[O-] | 108 | 117 | 103 | 113 | 112 | 102 | 93.2 | 104 | 99.8 | 75 | 69.9 | 81.9 | 92.3 | 110 | 120 | 103 | 86.3 | 98.3 | 97 | 88.6 | 70 | 45.1 | 99.6 | 109 | 104 | 106 | 93.4 | 68.5 | 104 | 97.8 | 93.3 | 80 | 60.9
O=C1N\C=N/C2=C1C=N[NH]2 | 74.3 | 77.4 | 74 | 95.1 | 70.6 | 90.7 | 77.2 | 22.6 | 93.8 | 94.5 | 41.9 | 70.2 | 79 | 69.4 | 90.4 | 62.5 | 91.7 | 81.2 | 20.2 | 81.6 | 88.8 | 71.8 | 74.8 | 86.2 | 81.4 | 104 | 79.1 | 99.2 | 82.1 | 32.9 | 96.1 | 86.7 | 47.4
Cc1c(C(=O)c2cccc3ccccc23)c2cccc3c2n1[C@H](CN1CCOCC1)CO3 | 99.3 | 78.2 | 85.2 | 89.5 | 89.7 | 28.8 | 97.9 | 86.7 | 84 | 78.1 | 4.91 | 93.6 | 74.4 | 71.3 | 94.6 | 88.6 | 47.8 | 93.1 | 80.4 | 95.6 | 84.9 | 4.48 | 104 | 80.4 | 82 | 105 | 98 | 65.1 | 92.3 | 93.1 | 91.7 | 76.5 | 5.76
CN1CCC(CC1)=C2C3=C(C=CC=C3)\C=C/C4=C2C=CC=C4 | 102 | 109 | 120 | 121 | 125 | 126 | 123 | 112 | 131 | 105 | 103 | 118 | 121 | 126 | 115 | 125 | 135 | 139 | 138 | 130 | 113 | 101 | 101 | 109 | 117 | 117 | 133 | 134 | 130 | 104 | 119 | 112 | 86.7
CCc1cc(-c2n[nH]c(C)c2-c2ccc3c(c2)OCCO3)c(O)cc1O | 98 | 123 | 137 | 117 | 128 | 124 | 126 | 111 | 111 | 32.9 | 36.2 | 106 | 123 | 115 | 127 | 134 | 140 | 120 | 115 | 102 | 31.4 | 25.2 |  |  |  |  |  |  |  |  |  |  | 
CCN(CC)CCCC(C)Nc1nc(C)cc(Nc2ccc3nc(C)cc(N)c3c2)n1 (centres undefined) | 100 | 104 | 96.1 | 100 | 101 | 115 | 106 | 114 | 110 | 99.7 | 88.2 | 75.2 | 80.4 | 75.3 | 72.2 | 69.6 | 65.5 | 75.5 | 75.6 | 63.9 | 66.1 | 72 | 115 | 97.1 | 113 | 107 | 100 | 118 | 98.9 | 106 | 96.4 | 99.6 | 86.4
